Source: ChEMBL document CHEMBL4680155, “One-pot synthesis and molecular docking of some new spiropyranindol-2-one derivatives as immunomodulatory agents and in vitro antimicrobial potential with DNA gyrase inhibitor” (Eur J Med Chem, 2020)
Converted amounts (≈) assume the structure as drawn.

Legend:
Enterococcus faecalis [1] = assay: Antibacterial activity against Enterococcus faecalis ATCC 29212 assessed as diameter of inhibition zone at 0.5 mg/ml incubated for 24 hrs by agar diffusion method; type: functional; details: read-out: DIZ
Staphylococcus aureus [2] = assay: Antibacterial activity against Staphylococcus aureus ATCC 29213 assessed as diameter of inhibition zone at 0.5 mg/ml incubated for 24 hrs by agar diffusion method; type: functional; details: read-out: DIZ
Escherichia coli [3] = assay: Antibacterial activity against Escherichia coli ATCC 25922 assessed as diameter of inhibition zone at 0.5 mg/ml incubated for 24 hrs by agar diffusion method; type: functional; details: read-out: DIZ
Salmonella typhimurium [4] = assay: Antibacterial activity against Salmonella typhi ATCC 6539 assessed as diameter of inhibition zone at 0.5 mg/ml incubated for 24 hrs by agar diffusion method; type: functional, Salmonella enterica subsp. enterica serovar Typhimurium; details: Salmonella enterica, read-out: DIZ
Candida albicans [5] = assay: Antifungal activity against Candida albicans ATCC 10231 assessed as diameter of inhibition zone at 0.5 mg/ml incubated for 24 hrs by agar diffusion method; type: functional; details: read-out: DIZ
Aspergillus brasiliensis [6] = assay: Antifungal activity against Aspergillus brasiliensis ATCC 16404 assessed as diameter of inhibition zone at 0.5 mg/ml incubated for 72 hrs by agar diffusion method; type: functional; details: read-out: DIZ
Enterococcus faecalis [7] = assay: Antibacterial activity against Enterococcus faecalis ATCC 29212 assessed as reduction in bacterial growth incubated for 1 day by paper disk diffusion method; type: functional; details: ATCC 29212, 24 h
Staphylococcus aureus [8] = assay: Antibacterial activity against Staphylococcus aureus ATCC 29213 assessed as reduction in bacterial growth incubated for 1 day by paper disk diffusion method; type: functional; details: ATCC 29213, 24 h
Escherichia coli [9] = assay: Antibacterial activity against Escherichia coli ATCC 25922 assessed as reduction in bacterial growth incubated for 1 day by paper disk diffusion method; type: functional; details: ATCC 25922, 24 h
Salmonella typhimurium [10] = assay: Antibacterial activity against Salmonella typhi ATCC 6539 assessed as reduction in bacterial growth incubated for 1 day by paper disk diffusion method; type: functional, Salmonella enterica subsp. enterica serovar Typhimurium; details: Salmonella enterica, ATCC 6539, 24 h
Candida albicans [11] = assay: Antifungal activity against Candida albicans ATCC 10231 assessed as reduction in bacterial growth incubated for 1 day by paper disk diffusion method; type: functional; details: ATCC 10231, 24 h
Aspergillus brasiliensis [12] = assay: Antifungal activity against Aspergillus brasiliensis ATCC 16404 assessed as reduction in bacterial growth incubated for 3 days by paper disk diffusion method; type: functional; details: ATCC 16404, 72 h, time 3 day
Enterococcus faecalis [13] = assay: Bactericidal activity against Enterococcus faecalis ATCC 29212 incubated for 24 hrs followed by transferring to freshly prepared broth medium and measured after 24 hrs by broth microdilution assay; type: functional; details: time 48 hrs
Staphylococcus aureus [14] = assay: Bactericidal activity against Staphylococcus aureus ATCC 29213 incubated for 24 hrs followed by transferring to freshly prepared broth medium and measured after 24 hrs by broth microdilution assay; type: functional; details: time 48 hrs
Escherichia coli [15] = assay: Bactericidal activity against Escherichia coli ATCC 25922 incubated for 24 hrs followed by transferring to freshly prepared broth medium and measured after 24 hrs by broth microdilution assay; type: functional; details: time 48 hrs
Salmonella typhimurium [16] = assay: Bactericidal activity against Salmonella typhi ATCC 6539 incubated for 24 hrs followed by transferring to freshly prepared broth medium and measured after 24 hrs by broth microdilution assay; type: functional, Salmonella enterica subsp. enterica serovar […]; details: Salmonella enterica, time 48 hrs
Candida albicans [17] = assay: Fungicidal activity against Candida albicans ATCC 10231 incubated for 24 hrs followed by transferring to freshly prepared broth medium and measured after 24 hrs by broth microdilution assay; type: functional; details: time 48 hrs
Aspergillus brasiliensis [18] = assay: Fungicidal activity against Aspergillus brasiliensis ATCC 16404 incubated for 72 hrs followed by transferring to freshly prepared broth medium and measured after 24 hrs by broth microdilution assay; type: functional; details: time 96 hrs
Staphylococcus aureus [19] = assay: Antibacterial activity against multidrug resistant Staphylococcus aureus ATCC 43300 assessed as diameter of inhibition zone at 0.5 mg/ml incubated for 24 hrs by agar diffusion method; type: functional; details: read-out: DIZ
Staphylococcus aureus [20] = assay: Antibacterial activity against multidrug resistant Staphylococcus aureus ATCC 33591 assessed as diameter of inhibition zone at 0.5 mg/ml incubated for 24 hrs by agar diffusion method; type: functional; details: read-out: DIZ
Escherichia coli [21] = assay: Antibacterial activity against multidrug resistant Escherichia coli ATCC BAA-196 assessed as diameter of inhibition zone at 0.5 mg/ml incubated for 24 hrs by agar diffusion method; type: functional; details: read-out: DIZ
Pseudomonas aeruginosa [22] = assay: Antibacterial activity against multidrug resistant Pseudomonas aeruginosa ATCC BAA-2111 assessed as diameter of inhibition zone at 0.5 mg/ml incubated for 24 hrs by agar diffusion method; type: functional; details: read-out: DIZ
Staphylococcus aureus [23] = assay: Antibacterial activity against multidrug resistant Staphylococcus aureus ATCC 43300 assessed as reduction in bacterial growth incubated for 1 day by paper disk diffusion method; type: functional; details: ATCC 43300, 24 h
Staphylococcus aureus [24] = assay: Antibacterial activity against multidrug resistant Staphylococcus aureus ATCC 33591 assessed as reduction in bacterial growth incubated for 1 day by paper disk diffusion method; type: functional; details: ATCC 33591, 24 h
Escherichia coli [25] = assay: Antibacterial activity against multidrug resistant Escherichia coli ATCC BAA-196 assessed as reduction in bacterial growth incubated for 1 day by paper disk diffusion method; type: functional; details: ATCC BAA-196, 24 h
Pseudomonas aeruginosa [26] = assay: Antibacterial activity against multidrug resistant Pseudomonas aeruginosa ATCC BAA-2111 assessed as reduction in bacterial growth incubated for 1 day by paper disk diffusion method; type: functional; details: ATCC BAA-2111, 24 h
Staphylococcus aureus [27] = assay: Bactericidal activity against Staphylococcus aureus ATCC 43300 incubated for 24 hrs followed by transferring to freshly prepared broth medium and measured after 24 hrs by broth microdilution assay; type: functional; details: time 48 hrs
Staphylococcus aureus [28] = assay: Bactericidal activity against Staphylococcus aureus ATCC 33591 incubated for 24 hrs followed by transferring to freshly prepared broth medium and measured after 24 hrs by broth microdilution assay; type: functional; details: time 48 hrs
Escherichia coli [29] = assay: Bactericidal activity against Escherichia coli ATCC BAA-196 incubated for 24 hrs followed by transferring to freshly prepared broth medium and measured after 24 hrs by broth microdilution assay; type: functional; details: time 48 hrs
Pseudomonas aeruginosa [30] = assay: Bactericidal activity against Pseudomonas aeruginosa ATCC BAA-2111 incubated for 24 hrs followed by transferring to freshly prepared broth medium and measured after 24 hrs by broth microdilution assay; type: functional; details: time 48 hrs
Neutrophil = assay: Immunomodulatory activity in human neutrophils infected with bacteria assessed as increase in bacterial killing by measuring reduced NBT incubated for 30 mins by NBT dye based spectrophotometry; type: functional; set-up: concentration or dose not given beside the values; details: 0.5 h
DNA gyrase = DNA gyrase (Staphylococcus aureus, UniProt P0A0K8+P20831); assay: Inhibition of Staphylococcus aureus DNA gyrase using relaxed pBR322 DNA as substrate incubated for 45 mins by agarose gel electrophoresis method; type: protein-complex assay
Sequence of DNA gyrase (P0A0K8 whole entry): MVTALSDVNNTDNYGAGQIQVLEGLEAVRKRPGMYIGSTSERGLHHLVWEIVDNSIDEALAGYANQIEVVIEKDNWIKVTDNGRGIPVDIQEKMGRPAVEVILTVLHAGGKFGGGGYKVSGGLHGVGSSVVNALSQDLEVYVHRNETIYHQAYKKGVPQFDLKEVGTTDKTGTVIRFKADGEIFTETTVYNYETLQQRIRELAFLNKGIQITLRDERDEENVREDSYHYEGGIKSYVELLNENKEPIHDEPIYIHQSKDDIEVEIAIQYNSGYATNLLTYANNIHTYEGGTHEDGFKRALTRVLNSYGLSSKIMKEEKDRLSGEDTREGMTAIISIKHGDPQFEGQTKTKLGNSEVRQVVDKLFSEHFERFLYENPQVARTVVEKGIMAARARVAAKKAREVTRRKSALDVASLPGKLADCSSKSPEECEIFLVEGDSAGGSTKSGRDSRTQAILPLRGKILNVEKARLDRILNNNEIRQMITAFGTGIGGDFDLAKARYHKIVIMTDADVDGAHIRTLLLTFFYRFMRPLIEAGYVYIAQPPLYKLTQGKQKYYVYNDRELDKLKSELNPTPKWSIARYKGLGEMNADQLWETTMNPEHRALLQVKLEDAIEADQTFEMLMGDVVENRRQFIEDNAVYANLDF
Sequence of DNA gyrase (P20831 whole entry): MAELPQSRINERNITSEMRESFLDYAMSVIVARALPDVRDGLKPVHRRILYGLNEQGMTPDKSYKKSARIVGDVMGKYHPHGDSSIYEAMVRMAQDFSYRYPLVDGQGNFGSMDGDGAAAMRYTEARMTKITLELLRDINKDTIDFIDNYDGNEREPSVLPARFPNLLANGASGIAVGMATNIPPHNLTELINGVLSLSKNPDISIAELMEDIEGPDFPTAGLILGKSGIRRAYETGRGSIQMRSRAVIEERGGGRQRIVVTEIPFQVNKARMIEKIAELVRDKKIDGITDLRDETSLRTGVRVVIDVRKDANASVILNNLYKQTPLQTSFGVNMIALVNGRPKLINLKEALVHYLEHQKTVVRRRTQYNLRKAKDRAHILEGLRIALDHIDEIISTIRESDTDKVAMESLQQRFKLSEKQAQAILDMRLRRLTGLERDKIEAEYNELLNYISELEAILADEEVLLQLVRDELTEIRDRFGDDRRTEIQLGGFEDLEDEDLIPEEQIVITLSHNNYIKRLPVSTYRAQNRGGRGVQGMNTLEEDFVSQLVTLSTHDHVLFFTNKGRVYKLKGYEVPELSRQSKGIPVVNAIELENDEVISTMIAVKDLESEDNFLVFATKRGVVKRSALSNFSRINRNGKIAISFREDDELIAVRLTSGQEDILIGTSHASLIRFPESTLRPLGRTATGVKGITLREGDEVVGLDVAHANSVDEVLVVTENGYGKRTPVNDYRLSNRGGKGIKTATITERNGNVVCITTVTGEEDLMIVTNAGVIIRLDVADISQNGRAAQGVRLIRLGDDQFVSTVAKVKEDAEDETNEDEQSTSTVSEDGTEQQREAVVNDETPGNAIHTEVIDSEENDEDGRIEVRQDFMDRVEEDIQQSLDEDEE

Structure (SMILES) | zone of inhibition at 500 µg/mL (Enterococcus faecalis [1]) | zone of inhibition at 500 µg/mL (Staphylococcus aureus [2]) | zone of inhibition at 500 µg/mL (Escherichia coli [3]) | zone of inhibition at 500 µg/mL (Salmonella typhimurium [4]) | zone of inhibition at 500 µg/mL (Candida albicans [5]) | zone of inhibition at 500 µg/mL (Aspergillus brasiliensis [6]) | MIC (Enterococcus faecalis [7]) | MIC (Staphylococcus aureus [8]) | MIC (Escherichia coli [9]) | MIC (Salmonella typhimurium [10]) | MIC (Candida albicans [11]) | MIC (Aspergillus brasiliensis [12]) | MBC (Enterococcus faecalis [13]) | MBC (Staphylococcus aureus [14]) | MBC (Escherichia coli [15]) | MBC (Salmonella typhimurium [16]) | MFC (Candida albicans [17]) | MFC (Aspergillus brasiliensis [18]) | zone of inhibition at 500 µg/mL (Staphylococcus aureus [19]) | zone of inhibition at 500 µg/mL (Staphylococcus aureus [20]) | further results
CC(=O)C1=C(c2ccccc2)OC(N)=C(C#N)C12C(=O)Nc1ccc(S(=O)(=O)N3CCCCC3)cc12 (stereo unspecified) | 23 mm | 24 mm | 22 mm | 22 mm | 23 mm | 19 mm | 31.5 µg/mL (≈ 62.4 µM) | 35.5 µg/mL (≈ 70.5 µM) | 17.8 µg/mL (≈ 35.2 µM) | 62.5 µg/mL (≈ 124 µM) | 15.6 µg/mL (≈ 31 µM) | 88.3 µg/mL (≈ 175 µM) | 43.7 µg/mL (≈ 86.7 µM) | 58.6 µg/mL (≈ 116 µM) | 28.4 µg/mL (≈ 56.3 µM) | 87.5 µg/mL (≈ 173 µM) | 31.2 µg/mL (≈ 61.9 µM) | 150 µg/mL (≈ 298 µM) | 25 mm | 26 mm | zone of inhibition at 500 µg/mL (Escherichia coli [21]): 27 mm; zone of inhibition at 500 µg/mL (Pseudomonas aeruginosa [22]): 25 mm; MIC (Staphylococcus aureus [23]): 0.97 µg/mL (≈ 1.92 µM); MIC (Staphylococcus aureus [24]): 0.78 µg/mL (≈ 1.55 µM); MIC (Escherichia coli [25]): 0.97 µg/mL (≈ 1.92 µM); MIC (Pseudomonas aeruginosa [26]): 1.95 µg/mL (≈ 3.86 µM); MBC (Staphylococcus aureus [27]): 1.94 µg/mL (≈ 3.84 µM); MBC (Staphylococcus aureus [28]): 1.56 µg/mL (≈ 3.09 µM); MBC (Escherichia coli [29]): 1.55 µg/mL (≈ 3.07 µM); MBC (Pseudomonas aeruginosa [30]): 3.9 µg/mL (≈ 7.73 µM); Activity (Neutrophil): 972%; IC50 (DNA gyrase): 18.1 µM
CCOC(=O)C1=C(N)OC(C)=C(C(C)=O)C12C(=O)Nc1ccc(S(=O)(=O)N3CCOCC3)cc12 (stereo unspecified) | 19 mm | 23 mm | 21 mm | 20 mm | 20 mm | 16 mm | 12.5 µg/mL (≈ 25.4 µM) | 62.5 µg/mL (≈ 127 µM) | 15.6 µg/mL (≈ 31.8 µM) | 31.2 µg/mL (≈ 63.6 µM) | 8.88 µg/mL (≈ 18.1 µM) | 88.3 µg/mL (≈ 180 µM) | 17.6 µg/mL (≈ 35.7 µM) | 100 µg/mL (≈ 203 µM) | 20.3 µg/mL (≈ 41.3 µM) | 53.1 µg/mL (≈ 108 µM) | 15.6 µg/mL (≈ 31.8 µM) | 177 µg/mL (≈ 359 µM) | 23 mm | 23 mm | zone of inhibition at 500 µg/mL (Escherichia coli [21]): 24 mm; zone of inhibition at 500 µg/mL (Pseudomonas aeruginosa [22]): 20 mm; MIC (Staphylococcus aureus [23]): 4.44 µg/mL (≈ 9.03 µM); MIC (Staphylococcus aureus [24]): 3.9 µg/mL (≈ 7.93 µM); MIC (Escherichia coli [25]): 3.9 µg/mL (≈ 7.93 µM); MIC (Pseudomonas aeruginosa [26]): 7.81 µg/mL (≈ 15.9 µM); MBC (Staphylococcus aureus [27]): 6.66 µg/mL (≈ 13.5 µM); MBC (Staphylococcus aureus [28]): 5.07 µg/mL (≈ 10.3 µM); MBC (Escherichia coli [29]): 7.8 µg/mL (≈ 15.9 µM); MBC (Pseudomonas aeruginosa [30]): 12.5 µg/mL (≈ 25.4 µM); Activity (Neutrophil): 136.7%; IC50 (DNA gyrase): 25.1 µM
CC(=O)C1=C(C)OC(N)=C(C#N)C12C(=O)Nc1ccc(S(=O)(=O)N3CCOCC3)cc12 (stereo unspecified) | 20 mm | 22 mm | 21 mm | 19 mm | 21 mm | 14 mm | 17.8 µg/mL (≈ 40 µM) | 71.1 µg/mL (≈ 160 µM) | 15.6 µg/mL (≈ 35.1 µM) | 31.2 µg/mL (≈ 70.3 µM) | 7.81 µg/mL (≈ 17.6 µM) | 125 µg/mL (≈ 281 µM) | 26.6 µg/mL (≈ 60 µM) | 85.3 µg/mL (≈ 192 µM) | 23.4 µg/mL (≈ 52.7 µM) | 50 µg/mL (≈ 112 µM) | 15.6 µg/mL (≈ 35.1 µM) | 150 µg/mL (≈ 337 µM) | 21 mm | 20 mm | zone of inhibition at 500 µg/mL (Escherichia coli [21]): 22 mm; zone of inhibition at 500 µg/mL (Pseudomonas aeruginosa [22]): 18 mm; MIC (Staphylococcus aureus [23]): 7.81 µg/mL (≈ 17.6 µM); MIC (Staphylococcus aureus [24]): 7.81 µg/mL (≈ 17.6 µM); MIC (Escherichia coli [25]): 6.25 µg/mL (≈ 14.1 µM); MIC (Pseudomonas aeruginosa [26]): 8.88 µg/mL (≈ 20 µM); MBC (Staphylococcus aureus [27]): 12.5 µg/mL (≈ 28.1 µM); MBC (Staphylococcus aureus [28]): 9.37 µg/mL (≈ 21.1 µM); MBC (Escherichia coli [29]): 12.5 µg/mL (≈ 28.1 µM); MBC (Pseudomonas aeruginosa [30]): 17.8 µg/mL (≈ 40 µM); Activity (Neutrophil): 112.9%; IC50 (DNA gyrase): 25.1 µM
